For one assay, the system named is Balb/c mice. Nature of the assay: Mouse Arthus. In kind it is in vivo. The following applies: oral gavage at 30 mg/kg, 1 h pre-treatment. How it is done: Mouse Arthus studies were conducted as reported in Braselmann S, Taylor V, Zhao H, Wang S, Sylvain C, Baluom M, Qu K, Herlaar E, Lau A, Young C, Wong B R, Lovell S, Sun T, Park G, Argade A, Jurcevic S, Pine P, Singh R, Grossbard E B, Payan D G, Masuda E S: R406 an orally available spleen tyrosine kinase inhibitor blocks fc receptor signaling and reduces immune-complex mediated inflammation. J Pharmacol Exp Ther, 2006, 319:998-1008.
In summary, female Balb/c mice (6-7 weeks on arrival) were habituated to the animal facility for at least 4 days. On the day of the experiment, animals were pre-treated (t=minus 1 h) with compound or vehicle alone by gavage (PO). At t=0, animals were injected intravenously (IV; 0.1 mL/mouse) with saline containing chicken ovalbumin and Evan's blue (10 mg/mL of each). Ten minutes later (t=10 min), animals were anesthesized with isoflurane, the dorsal surface was shaved and rabbit anti-chicken ovalbumin antibody was then injected intradermally at one site on the right side of the animal (25 μg in 30 μL). The same amount of isotype control antibody was then injected on the left side.
The animals were then returned to their home cage and skin punches (8 mm) were collected from each injection site four hours later. The samples were placed in 1 mL formamide overnight at 80 degrees C. (1 skin biopsy per 1 mL formamide in a glass tube). The amount of Evan's blue in the formamide solution was then assessed by spectrophotometry (630 nm) as a measure of serum extravasation into the dermis.

The subject of assay [1] is Splenocytes (B cell proliferation stimulated with anti-IgM F(ab′)2). Nature of the assay: Splenic Cell Proliferation Assay. In kind it is cell-based. Particulars: Mus musculus, Splenocyte, 72 h, CD1 mouse splenocytes, 2.5 ug/ml anti-IgM F(ab′)2 for 72 h, Cell Titer-Glo; read-out: EC50 (nM), Inhibition of splenic cell proliferation. An outline of the steps:
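Splenocytes from 6-week male CD1 mice, adherent cells removed, seeded at 50,000 cells/well and pre-treated 1 h with compound curves (top 10,000 nM). Stimulated with 2.5 ug/ml anti-IgM F(ab′)2 for 72 h; proliferation by CellTiter-Glo luminescence, EC50 relative to vehicle controls.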
(Cellular ATP, detected with luciferase, serves as a proxy for viable cell number.)

Assay [2] deals with recombinant human full-length Bruton Agammaglobulinemia Tyrosine Kinase (Btk) (Homo sapiens (Human), UniProt Q06187). Nature of the assay: Btk Kinase Inhibition Assay (fluorescence polarization). Format: biochemical. The following applies: 10 μM ATP, 250 μM substrate, 60 minutes; Ki calculated from IC50 using the Cheng-Prusoff equation. An outline of the steps: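 His-tagged full-length enzyme reacted 60 min at room temperature with 250 μM substrate, 10 μM ATP and compound dilutions; stopped with EDTA/detection reagents, read by fluorescence polarization. IC50 from nonlinear fit, converted to Ki via Cheng-Prusoff using experimentally determined ATP Km.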

Another assay relates to B10R111 mice. Nature of the assay: Mouse CIA model. Format: in vivo. Particulars: oral gavage at 30 mg/kg (BID). As to the method:
Mouse CIA model was performed using the methods described by Trentham D E, Townes A S, Kang A H. Autoimmunity to Type II Collagen: An Experimental Model of Arthritis. J Exp Med 1977; 857-868, and Bendele A M. Animal Models of Rheumatoid Arthritis. J Musculoskel Interact 2001; 377-385.
In summary, male B10R111 mice (7-9 wks on arrival) were habituated to the animal facility for at least 4 days. On experimental day 0 mice were anaesthetized with isoflurane and the dorsal surface was shaved. Collagen, emulsified in Freund's complete adjuvant (CFA) supplemented with additional mycobacterium tuberculosis (TB) H37Ra, was injected intradermally at the base of the tail (0.15 mL/animal; 2 mg/mL collagen and 2.5 mg/mL TB in CFA). This CFA treatment was repeated on day 15.
From day 15 to the end of the study animals were scored daily for signs of arthritis. On the first day of disease (RA Day 1) animals were recruited to the study and grouped using a balanced design based on arthritis score. Once recruited, animals were weighed and dosed twice daily by gavage (PO, BID). Recruited animals were then scored twice a week on RA days 1, 5, 8 and 12. At the end of the study (RA day 12) animals were weighed and scored.

One may read the Ki as a dissociation constant, usually derived from enzyme kinetics or from competition with a known ligand.

recombinant human full-length Bruton Agammaglobulinemia Tyrosine Kinase (Btk), sequence (Q06187 whole entry): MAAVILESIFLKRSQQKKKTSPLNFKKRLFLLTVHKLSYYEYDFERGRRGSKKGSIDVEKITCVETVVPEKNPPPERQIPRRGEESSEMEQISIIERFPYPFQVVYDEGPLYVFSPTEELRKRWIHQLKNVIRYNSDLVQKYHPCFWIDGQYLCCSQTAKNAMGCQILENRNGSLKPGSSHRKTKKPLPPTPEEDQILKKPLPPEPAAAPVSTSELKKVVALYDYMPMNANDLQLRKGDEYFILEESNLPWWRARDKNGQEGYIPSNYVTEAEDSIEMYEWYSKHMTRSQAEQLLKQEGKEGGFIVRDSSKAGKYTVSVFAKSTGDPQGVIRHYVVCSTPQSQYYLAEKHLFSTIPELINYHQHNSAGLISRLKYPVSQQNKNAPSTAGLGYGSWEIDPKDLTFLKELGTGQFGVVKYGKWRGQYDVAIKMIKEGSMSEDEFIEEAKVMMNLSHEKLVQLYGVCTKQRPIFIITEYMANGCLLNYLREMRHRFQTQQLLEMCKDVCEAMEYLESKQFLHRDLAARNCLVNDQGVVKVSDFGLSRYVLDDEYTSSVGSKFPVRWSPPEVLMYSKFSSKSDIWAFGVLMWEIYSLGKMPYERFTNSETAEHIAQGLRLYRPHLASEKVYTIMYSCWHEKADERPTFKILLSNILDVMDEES

Take `Cc1ccc(COc2cc(F)cc(Oc3ccc(-c4nn(C(C)C)c5ncnc(N)c45)cc3)c2)cn1` [Compound 85]: the “efficacy in mouse Arthus (Evan's blue extravasation)” value (“efficacy in mouse Arthus” for short) in the assay on Balb/c mice is “demonstrated efficacy”. The EC50 in assay [1] was below 100 nM. Moreover, the inhibitory constant (Ki) in assay [2] is below 100 nM. Also, the “efficacy in mouse CIA model (arthritis score)” value (“efficacy in mouse CIA model” for short) with B10R111 mice is listed as “demonstrated efficacy”.

Turning to `Cc1ncc(COc2cc(F)cc(Oc3ccc(-c4nn(C(C)C)c5ncnc(N)c45)cc3)c2)s1` [Compound 78], the “efficacy in mouse Arthus” value in the assay with Balb/c mice is given as “demonstrated efficacy”. In assay [1], the EC50 is below 100 nM. Further, the Ki in assay [2] is below 100 nM. The “efficacy in mouse CIA model” value in the assay on B10R111 mice is on record as “demonstrated efficacy”.

Consider `Cc1ncc(COc2cc(F)cc(Oc3ccc(-c4nn(C(C)C)c5ncnc(N)c45)cc3)c2)cn1` [Compound 102], for which the “efficacy in mouse Arthus” value in the assay with Balb/c mice is “demonstrated efficacy”. The EC50 in assay [1] was below 100 nM. Besides, the Ki in assay [2] is below 100 nM. Besides, the “efficacy in mouse CIA model” value in the assay on B10R111 mice is listed as “demonstrated efficacy”.

With `Nc1ncnc2c1c(-c1ccc(Oc3cccc(OCc4cncs4)c3)cc1)nn2C1CCCC1` [Compound 14], the “efficacy in mouse Arthus” value in the assay with Balb/c mice was “demonstrated efficacy”. In assay [1], the EC50 is below 100 nM. For the same compound, in assay [2], the Ki is below 100 nM. Further, the “efficacy in mouse CIA model” value in the assay on B10R111 mice is “demonstrated efficacy”.

Consider `Cc1ncc(COc2cc(F)cc(Oc3ccc(-c4nn(C5CCCC5)c5ncnc(N)c45)cc3)c2)s1` [Compound 58], for which the “efficacy in mouse Arthus” value in the assay with Balb/c mice is listed as “demonstrated efficacy”. Further, the EC50 in assay [1] is below 100 nM. The Ki in assay [2] is below 100 nM. The “efficacy in mouse CIA model” value in the assay with B10R111 mice is “demonstrated efficacy”.

On to `Cc1ncc(COc2cc(F)cc(Oc3ccc(-c4nn(C5CCOCC5)c5ncnc(N)c45)cc3)c2)s1` [Compound 54], for which the “efficacy in mouse Arthus” value in the assay with Balb/c mice was “demonstrated efficacy”. Besides, the EC50 in assay [1] was below 100 nM. Besides, the Ki in assay [2] was below 100 nM.

On to `Nc1ncnc2c1c(-c1ccc(Oc3cc(F)cc(OCc4cncs4)c3)cc1)nn2C1CCOCC1` [Compound 46], for which, in the assay with Balb/c mice, the “efficacy in mouse Arthus” value is “demonstrated efficacy”. In assay [1], the EC50 was below 100 nM. Moreover, the Ki in assay [2] was below 100 nM.

Values taken from patent US9796716B2, “Selective inhibitors of Tec and Src protein kinase families” (Pharmascience, Inc., priority 2012, dated 2017).
